Results filed as inconclusive are left out.
What follows are compounds tested on PC12 inducible Htt-N63-148Q toxicity rescue (assay: protection against mutant Htt fragment cytotoxicity – PC12 cells, inducible expression, ROSShtt, dose response (AID 1590)).

SMILES | EC50 [nM]
C=C1c2c(Cl)ccc(O)c2C(O)=C2C(=O)[C@]3(O)C(O)=C(C(N)=O)C(=O)[C@@H](N(C)C)[C@@H]3[C@@H](O)[C@H]12 | 10
CCCNCC(O)COc1ccccc1C(=O)CCc1ccccc1 (stereo unspecified) | 10000
COc1c(C)c2c(c(O)c1C/C=C(\C)CCC(=O)O)C(=O)OC2 | 10000
CN(C)[C@@H]1C(=O)C(C(N)=O)=C(O)[C@@]2(O)C(=O)C3=C(O)c4c(O)cccc4[C@@](C)(O)[C@H]3C[C@@H]12 | 100
O=C(O)C1CCCNC1 (stereo unspecified) | 10000
C=C1c2cccc(O)c2C(O)=C2C(=O)[C@]3(O)C(O)=C(C(N)=O)C(=O)[C@@H](N(C)C)[C@@H]3[C@@H](O)[C@H]12 | 10
CN(C)[C@@H]1C(=O)C(C(N)=O)=C(O)[C@@]2(O)C(=O)C3=C(O)c4c(O)ccc(Cl)c4[C@@H](O)[C@H]3C[C@@H]12 | 1000
CC(C)NCC(O)c1ccc(O)c(O)c1 (stereo unspecified) | 15000
CCN(Cc1ccncc1)C(=O)C(CO)c1ccccc1 (stereo unspecified) | 10
N[C@H](C(=O)O)[C@@H]1CC(Cl)=NO1 | 10000
CN(C)[C@@H]1C(=O)C(C(N)=O)=C(O)[C@@]2(O)C(=O)C3=C(O)c4c(O)cccc4[C@@](C)(O)[C@H]3[C@H](O)[C@@H]12 | 1000
